Some results are limits rather than exact numbers.

The assay deals with PANC-1. The assay can be described thus: Cytotoxicity against human PANC1 cells assessed as cell viability. The format is functional.
With `CC(C)=CCC/C(C)=C/COC(=O)c1c(O)cc(O)cc1CCc1ccccc1`, the PC100 was found to be 16 µM.

`COc1cc(O)c2c(c1C/C=C(\C)CCC=C(C)C)O[C@@H](c1ccccc1)CC2=O`: the PC100 is 128 µM.

With `CC(C)=CCC/C(C)=C/Cc1c(O)cc2c(c1O)C(=O)C[C@@H](c1ccccc1)O2`, the PC100 was determined as 8 µM.

Take `COc1cc(O)cc2c1C(=O)C[C@@H](c1ccccc1)O2`: the PC100 was more than 256 µM.

With `COc1cc(O)cc2c1C(=O)C[C@@H](c1ccc(O)cc1)O2`, the PC100 was more than 256 µM.

As to `COc1cc(O)c(C/C=C(\C)CCC=C(C)C)c(O)c1C(=O)/C=C/c1ccccc1`, the PC100 came out at 16 µM.

For the compound `CC(C)=CC[C@@H]1C(C)=CC[C@@H](C(=O)c2c(O)cc(O)cc2O)[C@@H]1c1ccccc1`, the PC100 worked out at 16 µM.

Consider `COc1cc(O)cc(O)c1C(=O)[C@@H]1[C@H](CC=C(C)C)C(C)=CC[C@H]1c1ccccc1`, for which the PC100 was found to be 16 µM.

As to `COc1cc2c(c(O)c1C/C=C(\C)CCC=C(C)C)C(=O)C[C@@H](c1ccccc1)O2`, the PC100 is 128 µM.

`CC(C)=CCCC1(C)C=Cc2c(cc3c(c2O)C(=O)C[C@@H](c2ccccc2)O3)O1` (stereo partly specified): the PC100 came out at 64 µM.

Turning to `COc1cc(O)cc(O)c1C(=O)[C@@H]1CC=C(C)[C@@H](CC=C(C)C)[C@H]1c1ccccc1` (racemic), the PC100 turned out to be 8 µM.

For the compound `COc1cc(O)c(C(=O)[C@@H]2[C@H](CC=C(C)C)C(C)=CC[C@H]2c2ccccc2)c(OC)c1` (racemic), the PC100 was 64 µM.

For `COc1cc(O)cc(O)c1C(=O)[C@@H]1[C@H](CC=C(C)C)C(C)=CC[C@H]1c1ccc(O)cc1` (racemic), the PC100 is more than 256 µM.

Consider `CC(C)=CC[C@@H]1C(C)=CC[C@@H](c2ccccc2)[C@@H]1C(=O)c1c(O)cc(O)cc1O` [4-HYDROXYPANDURATIN A], for which the PC100 turned out to be 16 µM.

Regarding `COc1cc(O)c(C(=O)[C@@H]2CC=C(C)[C@@H](CC=C(C)C)[C@H]2c2ccccc2)c(O)c1` [(-)-NICOLAIOIDESIN B], the PC100 is 2.5 µM.

Regarding `COc1cc(C[C@H]2C(=O)OC[C@@H]2Cc2ccc(OC)c(OC)c2)ccc1O` [ARCTIGENIN], the PC100 is 1 µM.

Turning to `COc1cc(O)c(C(=O)/C=C/c2ccccc2)c2c1C=CC(C)(CCC=C(C)C)O2` (stereo unspecified) [BOESENBERGIN A], the PC100 is 64 µM.

For `COc1cc2c(c(O)c1C(=O)/C=C/c1ccccc1)C=CC(C)(CCC=C(C)C)O2` (stereo unspecified) [BOESENBERGIN B], the PC100 was found to be 64 µM.

For the compound `COc1cc(O)cc(O)c1C(=O)/C=C/c1ccccc1` [CARDAMOMIN], the PC100 is more than 256 µM.

Turning to `COc1cc(/C=C/c2ccccc2)oc(=O)c1` [DESMETHOXYYANGONIN], the PC100 is more than 256 µM.

For the compound `COc1cc(O)c(C(=O)/C=C/c2ccc(O)cc2)c(OC)c1` [FLAVOKAWAIN C], the PC100 was more than 256 µM.

Regarding `CC(=O)O[C@H]1C(=O)[C@@]2(C)[C@H]([C@H](OC(=O)c3ccccc3)[C@]3(O)C[C@H](OC(=O)[C@H](O)[C@@H](NC(=O)c4ccccc4)c4ccccc4)C(C)=C1C3(C)C)[C@]1(OC(C)=O)CO[C@@H]1C[C@@H]2O` [PACLITAXEL], the PC100 is more than 256 µM.

Take `COc1cc(O)c(C(=O)[C@@H]2[C@H](CC=C(C)C)C(C)=CC[C@H]2c2ccccc2)c(O)c1` [PANDURATIN A]: the PC100 amounted to 2.5 µM.

Consider `O=C1C[C@@H](c2ccccc2)Oc2cc(O)cc(O)c21` [PINOCEMBRIN], for which the PC100 was found to be 64 µM.

`COc1cc(O)c2c(c1)O[C@H](c1ccccc1)CC2=O` [PINOSTROBIN]: the PC100 is more than 256 µM.

For the compound `COc1cc(O)c2c(=O)cc(-c3ccccc3)oc2c1` [TECHTOCHRYSIN], the PC100 was more than 256 µM.

(Values after ChEMBL document CHEMBL1141311, “Bioactive secondary metabolites from Boesenbergia pandurata of Myanmar and their preferential cytotoxicity against human pancreatic cancer PANC-1 cell line in nutrient-deprived medium” (2007).)
